Measurements published in patent US11230543B2, “Biaryl monobactam compounds and methods of use thereof for the treatment of bacterial infections” (priority 2015, dated 2022).
Where a name gives a salt, the structure may show the parent alone.

Tests used:
[1] = system: Klebsiella pneumoniae expressing KPC-1 (CL6569); assay: Antibiotic activity: growth inhibitory concentration (OD600), Klebsiella pneumoniae CL6569; format: cell-based; conditions: lowest concentration inhibiting 95% of bacterial growth; in the presence of β lactamase inhibitor Relebactam 4 μg/mL; 35±2° C. for 22 hours; tested range 100 μM to 0.098 μM
Protocol: (§1) Antibiotic Activity: Determination of Growth Inhibitory Concentration
(§2) The concentrations of compounds required to inhibit the growth of various strains of bacteria were determined in an assay that assessed bacterial growth by measuring optical density at 600 nm (OD600). The bacterial strains tested included the clinical strains Escherichia coli expressing NDM-1 (CLB30016), Klebsiella pneumoniae expressing KPC-1 (CL6569), Acinetobacter baumannii expressing TEM-1, AmpC, and Oxa-24/40 (CL6188) and Pseudomonas aeruginosa expressing AmpC (CL5701). All compounds were tested in the presence of a β lactamase inhibitor (BLi, Relebactam) in 384-well microplates. The clinical strains were stored as frozen single use stocks, thawed and diluted into 1.1× cation-adjusted Mueller-Hinton II broth to achieve approximately 2×10^5 CFU/mL. Test compounds were dissolved in DMSO and diluted 1:50 in the assay, resulting in a final concentration range of 100 μM to 0.098 μM. On the day of the assay, 1 μL of test compound was added to the plate followed by 4 μL of 50 μg/mL BLi in MOPS buffer and 45 μL of diluted bacteria. Plates were centrifuged at 1000 rpm for 30 seconds, shaken at approximately 800 rpm for 1 minute, and incubated at 35±2° C. for 22 hours. The concentration of BLi used in the assay was 4 μg/mL. At the end of the incubation, absorbance at 600 nm was determined using a spectrophotometer. Inhibition was quantitated by identifying the lowest concentration of test compound that was required to inhibit 95% of the growth of the bacteria. The results for Examples 1-126 are reported in Table I, expressed as the concentration of compound that inhibited 95% of bacterial growth (Minimum Inhibitory Threshold Concentration; MITC95).

[2] = system: Pseudomonas aeruginosa expressing AmpC (CL5701); assay: Antibiotic activity: growth inhibitory concentration (OD600), Pseudomonas aeruginosa CL5701; format: cell-based; conditions: lowest concentration inhibiting 95% of bacterial growth; in the presence of β lactamase inhibitor Relebactam 4 μg/mL; 35±2° C. for 22 hours; tested range 100 μM to 0.098 μM
Protocol: as §1, §2

Structure (SMILES)	KP_CL6569 MITC95 [1] [µM]	PA_CL5701 MITC95 [2] [µM]
Cn1c(-c2ccc(OC[C@H](O/N=C(\C(=O)N[C@@H]3C(=O)N(OS(=O)(=O)O)C3(C)C)c3csc(N)n3)C(N)=O)cc2)cn(CCCN)c1=N [Example 114, (S)-3-((Z)-2-((((S)-1-amino-3-(4-(1-(3-aminopropyl)-2-imino-3-methyl-2,3-dihydro-1H-imidazol-4-yl)phenoxy)-1-oxopropan-2-yl)oxy)imino)-2-(2-aminothiazol-4-yl)acetamido)-2,2-dimethyl-4-oxoazetidin-1-yl sulfate]	1.563	50
CC1(C)[C@H](NC(=O)/C(=N\O[C@@H](COc2ccc(C(N)CNC3=NCCN3)cc2)C(=O)O)c2csc(N)n2)C(=O)N1OS(=O)(=O)O (stereo partly drawn) [Example 61, (2S)-3-(4-(1-amino-2-((4,5-dihydro-1H-imidazol-2-yl)amino)ethyl)phenoxy)-2-((((Z)-1-(2-aminothiazol-4-yl)-2-(((S)-2,2-dimethyl-4-oxo-1-(sulfooxy)azetidin-3-yl)amino)-2-oxoethylidene)amino)oxy)propanoic acid]	1.563	12.5
C[n+]1cc(-c2ccc(OC[C@H](O/N=C(\C(=O)N[C@@H]3C(=O)N(OS(=O)(=O)O)C3(C)C)c3csc(N)n3)C(=O)O)cc2F)cn1CC(N)CN (single isomer, unassigned) [Example 45]	0.3906	6.25
C[n+]1cc(-c2ccc(OC[C@](C)(O/N=C(\C(=O)N[C@@H]3C(=O)N(OS(=O)(=O)O)C3(C)C)c3csc(N)n3)C(=O)O)cc2)cn1CCCN [Example 39, (S)-3-((Z)-2-((((S)-1-(4-(1-(3-aminopropyl)-2-methyl-1H-pyrazol-2-ium-4-yl)phenoxy)-2-carboxypropan-2-yl)oxy)imino)-2-(2-aminothiazol-4-yl)acetamido)-2,2-dimethyl-4-oxoazetidin-1-yl sulfate]	0.3255	3.125
C[n+]1cc(-c2ccc(OC[C@H](O/N=C(\C(=O)N[C@@H]3C(=O)N(OS(=O)(=O)[O-])C3(C)C)c3csc(N)n3)C(=O)O)cc2)ccc1NCCN [Example 66, (S)-3-((Z)-2-(((S)-2-(4-(6-((2-aminoethyl)amino)-1-methylpyridin-1-ium-3-yl)phenoxy)-1-carboxyethoxy)imino)-2-(2-aminothiazol-4-yl)acetamido)-2,2-dimethyl-4-oxoazetidin-1-yl sulfate]	0.2135	1.708
CC1(C)[C@H](NC(=O)/C(=N\OC(COc2ccc(C(N)CNC3=NCCN3)cc2)C(=O)O)c2csc(N)n2)C(=O)N1OS(=O)(=O)O (stereo in doubt) [Example 59, (R)-3-(4-((S)-1-amino-2-((4,5-dihydro-1H-imidazol-2-yl)amino)ethyl)phenoxy)-2-((((Z)-1-(2-aminothiazol-4-yl)-2-(((S)-2,2-dimethyl-4-oxo-1-(sulfooxy)azetidin-3-yl)amino)-2-oxoethylidene)amino)oxy)propanoic acid]	3.125	12.5
Cn1c(-c2ccc(OC[C@H](O/N=C(\C(=O)N[C@@H]3C(=O)N(OS(=O)(=O)O)C3(C)C)c3csc(N)n3)C(=O)O)cc2)cn(CC(O)CN)c1=N (single isomer, unassigned) [Example 56]	0.3906	3.125
CC1(C)[C@H](NC(=O)/C(=N\O[C@@H](COc2ccc(-c3cnc(NCCN)[n+](CC4CNC4)c3)cc2)C(=O)O)c2csc(N)n2)C(=O)N1OS(=O)(=O)[O-] [Example 99, (S)-3-((Z)-2-(((S)-2-(4-(2-((2-aminoethyl)amino)-1-(azetidin-3-ylmethyl)pyrimidin-1-ium-5-yl)phenoxy)-1-carboxyethoxy)imino)-2-(2-aminothiazol-4-yl)acetamido)-2,2-dimethyl-4-oxoazetidin-1-yl sulfate]	0.1953	3.125
C[n+]1cc(-c2ccc(OC[C@H](O/N=C(\C(=O)N[C@@H]3C(=O)N(OS(=O)(=O)[O-])C3(C)C)c3csc(N)n3)C(=O)O)cc2F)ccc1NCCN [Example 68, (S)-3-((Z)-2-(((S)-2-(4-(6-((2-aminoethyl)amino)-1-methylpyridin-1-ium-3-yl)-3-fluorophenoxy)-1-carboxyethoxy)imino)-2-(2-aminothiazol-4-yl)acetamido)-2,2-dimethyl-4-oxoazetidin-1-yl sulfate]	0.1953	3.125
CC1(C)[C@H](NC(=O)/C(=N\O[C@@H](COc2ccc(-c3cnc(NCCN)nc3)cc2)C(=O)O)c2csc(N)n2)C(=O)N1OS(=O)(=O)O [Example 70, (S)-3-(4-(2-((2-aminoethyl)amino)pyrimidin-5-yl)phenoxy)-2-((((Z)-1-(2-aminothiazol-4-yl)-2-(((S)-2,2-dimethyl-4-oxo-1-(sulfooxy)azetidin-3-yl)amino)-2-oxoethylidene)amino)oxy)propanoic acid]	0.7813	6.25
C[n+]1cc(-c2c(F)cc(OC[C@H](O/N=C(\C(=O)N[C@@H]3C(=O)N(OS(=O)(=O)O)C3(C)C)c3csc(N)n3)C(=O)O)cc2F)cn1CCCN.O=C(O)C(F)(F)F [Example 3, (S)-3-((Z)-2-(((S)-2-(4-(1-(3-aminopropyl)-2-methyl-1H-pyrazol-2-ium-4-yl)-3,5-difluorophenoxy)-1-carboxyethoxy)imino)-2-(2-aminothiazol-4-yl)acetamido)-2,2-dimethyl-4-oxoazetidin-1-yl sulfate compound with 2,2,2-trifluoroacetic acid (1:1)]	0.39	6.25
CC1(C)[C@H](NC(=O)/C(=N\O[C@@H](COc2ccc(-c3ccc(NCCN)[n+](CC4CNC4)c3)cc2)C(=O)O)c2csc(N)n2)C(=O)N1OS(=O)(=O)[O-] [Example 98, (S)-3-((Z)-2-(((S)-2-(4-(6-((2-aminoethyl)amino)-1-(azetidin-3-ylmethyl)pyridin-1-ium-3-yl)phenoxy)-1-carboxyethoxy)imino)-2-(2-aminothiazol-4-yl)acetamido)-2,2-dimethyl-4-oxoazetidin-1-yl sulfate]	0.09766	1.563
C[n+]1c(N)c(-c2ccc(OC[C@H](O/N=C(\C(=O)N[C@@H]3C(=O)N(OS(=O)(=O)[O-])C3(C)C)c3csc(N)n3)C(=O)O)cc2)cn1CCCN [Example 28, (S)-3-((Z)-2-(((S)-2-(4-(3-Amino-1-(3-aminopropyl)-2-methyl-1H-pyrazol-2-ium-4-yl)phenoxy)-1-carboxyethoxy)imino)-2-(2-aminothiazol-4-yl)acetamido)-2,2-dimethyl-4-oxoazetidin-1-yl sulfate]	0.2	3.13
C[n+]1ccc(-c2ccc(OC[C@H](O/N=C(\C(=O)N[C@@H]3C(=O)N(OS(=O)(=O)[O-])C3(C)C)c3csc(N)n3)C(=O)O)cc2)cc1NCCN [Example 62, (S)-3-((Z)-2-(((S)-2-(4-(2-((2-aminoethyl)amino)-1-methylpyridin-1-ium-4-yl)phenoxy)-1-carboxyethoxy)imino)-2-(2-aminothiazol-4-yl)acetamido)-2,2-dimethyl-4-oxoazetidin-1-yl sulfate]	0.36	5.8
C[C@H]1[C@H](NC(=O)/C(=N\O[C@@H](COc2ccc(-c3cnn(CCCN)c3)cc2)C(=O)O)c2csc(N)n2)C(=O)N1S(=O)(=O)O [Example 6, (S)-3-(4-(1-(3-aminopropyl)-1H-pyrazol-4-yl)phenoxy)-2-((((Z)-1-(2-aminothiazol-4-yl)-2-(((2S,3S)-2-methyl-4-oxo-1-sulfoazetidin-3-yl)amino)-2-oxoethylidene)amino)oxy)propanoic acid]	12.5	100
CC1(C)[C@H](NC(=O)/C(=N\O[C@@H](COc2ccc(-c3cn(CCCN)[n+](CC(F)CN)c3)cc2)C(=O)O)c2csc(N)n2)C(=O)N1OS(=O)(=O)[O-] (single isomer, unassigned) [Example 120]	0.1953	3.125
CC1(C)[C@H](NC(=O)/C(=N\O[C@@H](COc2ccc([C@H]3CN=C(NCCN)N3)cc2)C(=O)O)c2csc(N)n2)C(=O)N1OS(=O)(=O)O [Example 58, (S)-3-(4-((S)-2-((2-aminoethyl)amino)-4,5-dihydro-1H-imidazol-4-yl)phenoxy)-2-((((Z)-1-(2-aminothiazol-4-yl)-2-(((S)-2,2-dimethyl-4-oxo-1-(sulfooxy)azetidin-3-yl)amino)-2-oxoethylidene)amino)oxy)propanoic acid]	0.3906	3.125
